In ChEMBL document CHEMBL2163341, “Discovery of MK-7725, A Potent, Selective Bombesin Receptor Subtype-3 Agonist for the Treatment of Obesity” (ACS Med Chem Lett, 2012):

Tests used:
[1] = biological target: T1, Bombesin receptor subtype-3 (Homo sapiens) (UniProt P32247); assay: Agonist activity at human BRS-3 expressed in HEK293AEQ cells assessed as bioluminescence for 10 mins by aequorin bioluminescence assay relative to dY-peptide; assay type: functional, cell-based
T1 sequence (whole entry): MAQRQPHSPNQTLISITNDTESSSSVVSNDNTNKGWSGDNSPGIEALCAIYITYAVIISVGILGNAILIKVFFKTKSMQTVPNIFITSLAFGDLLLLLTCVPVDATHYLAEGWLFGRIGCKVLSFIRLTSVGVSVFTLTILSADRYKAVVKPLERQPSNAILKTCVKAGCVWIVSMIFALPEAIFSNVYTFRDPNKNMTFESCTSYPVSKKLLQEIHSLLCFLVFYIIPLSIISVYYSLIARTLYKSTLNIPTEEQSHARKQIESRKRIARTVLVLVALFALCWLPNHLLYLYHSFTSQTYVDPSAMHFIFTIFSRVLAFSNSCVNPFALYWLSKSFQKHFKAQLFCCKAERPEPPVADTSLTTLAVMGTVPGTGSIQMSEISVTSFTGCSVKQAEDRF

[2] = biological target: T2, Bombesin receptor subtype-3 (Mus musculus, UniProt O54798); assay: Agonist activity at mouse BRS-3 expressed in HEK293AEQ cells assessed as bioluminescence for 10 mins by aequorin bioluminescence assay; assay type: functional, cell-based
T2 sequence (O54798 whole entry): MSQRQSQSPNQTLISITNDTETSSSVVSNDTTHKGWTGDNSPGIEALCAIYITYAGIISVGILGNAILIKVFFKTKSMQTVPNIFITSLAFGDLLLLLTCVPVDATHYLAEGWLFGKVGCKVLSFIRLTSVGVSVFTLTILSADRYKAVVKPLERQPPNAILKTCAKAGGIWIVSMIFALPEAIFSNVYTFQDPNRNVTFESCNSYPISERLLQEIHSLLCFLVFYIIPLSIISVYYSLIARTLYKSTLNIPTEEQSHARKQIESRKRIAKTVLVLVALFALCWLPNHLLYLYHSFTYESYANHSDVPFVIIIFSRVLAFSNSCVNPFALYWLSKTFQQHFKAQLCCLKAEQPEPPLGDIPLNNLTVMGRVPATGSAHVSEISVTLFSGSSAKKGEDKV

Mus musculus = assay: Increase of core body temperature in DIO mouse assessed as AUC (1 to 6 hrs) of body temperature changes at 3 mg/kg by fasted temperature PD assay; assay type: functional
[3] = Oral bioavailability in Sprague-Dawley rat at 1 mg/kg; assay type: ADME, organism-based; details: in vivo
[4] = biological target: T3, Nuclear receptor subfamily 1 group I member 2 (Homo sapiens, UniProt O75469); assay: Activation of PXR at 10 uM
T3 sequence (O75469 whole entry): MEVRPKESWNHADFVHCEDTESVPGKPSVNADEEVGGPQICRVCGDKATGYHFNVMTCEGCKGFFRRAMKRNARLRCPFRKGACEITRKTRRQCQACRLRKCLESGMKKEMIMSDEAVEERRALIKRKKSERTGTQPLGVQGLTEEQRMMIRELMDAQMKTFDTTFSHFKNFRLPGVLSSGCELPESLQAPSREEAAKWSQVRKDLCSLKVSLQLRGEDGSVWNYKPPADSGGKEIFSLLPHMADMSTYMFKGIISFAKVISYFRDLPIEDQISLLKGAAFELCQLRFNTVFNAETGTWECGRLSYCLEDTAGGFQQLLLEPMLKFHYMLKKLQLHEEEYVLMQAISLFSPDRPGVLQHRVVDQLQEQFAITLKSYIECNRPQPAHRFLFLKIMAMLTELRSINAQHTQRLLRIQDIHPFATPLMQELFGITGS

Rattus norvegicus = assay: Dose normalized AUC in Sprague-Dawley rat at 1 mg/kg, po; assay type: ADME, organism-based; design: dose 1 mg/kg, route oral; details: in vivo
[5] = biological target: T4, Bombesin receptor subtype-3 (Homo sapiens, UniProt P32247); assay: Agonist activity at human BRS-3 expressed in HEK293AEQ cells assessed as bioluminescence for 10 mins by aequorin bioluminescence assay; assay type: functional, cell-based
T4 sequence (P32247 whole entry): T1 sequence (whole entry)

[6] = biological target: T5, Bombesin receptor subtype-3 (Mus musculus) (UniProt O54798); assay: Agonist activity at mouse BRS-3 expressed in HEK293AEQ cells assessed as bioluminescence for 10 mins by aequorin bioluminescence assay relative to dY-peptide; assay type: functional, cell-based
T5 sequence (whole entry): T2 sequence (O54798 whole entry)

[7] = biological target: T3, Nuclear receptor subfamily 1 group I member 2; assay: Activation of PXR
[8] = Half life in Sprague-Dawley rat at 0.5 mg/kg, iv; assay type: ADME, organism-based; design: dose 0.5 mg/kg, route intravenous; details: in vivo
[9] = biological target: T4, Bombesin receptor subtype-3; assay: Displacement of [125I]-dY-peptide from human BRS-3 expressed in NFAT-CHO cells after 2 hrs by liquid scintillation counting; assay type: cell-based
[10] = Plasma clearance in Sprague-Dawley rat at 0.5 mg/kg, iv; assay type: ADME, organism-based; design: dose 0.5 mg/kg, route intravenous

SMILES | Activity [1] [%] | EC50 [2] [nM] | Activity (Mus musculus) [degreeC.hr] | bioavailability [3] [%] | Activity [4] [%] | AUC/dose (Rattus norvegicus) [µM·kg·h/mg] | EC50 [5] [nM] | Activity [6] [%] | EC50 [7] [nM] | half-life [8] [h] | IC50 [9] [nM] | clearance [10] [mL/min/kg]
CC(C)(C)c1ccc(S(=O)(=O)N2Cc3ccc(C(F)(F)F)nc3Nc3cccc(-c4noc(CO)n4)c32)cc1 | 102 | 93 | 2.6 | 29 | 78 | 0.39 | 56 | 114 | 3500 | 1.7 | 0.7 | 22
CC(C)(C)c1ccc(S(=O)(=O)N2Cc3ccc(C(F)(F)F)nc3Nc3cccc(C4CCNCC4)c32)cc1 | 101 | 115 | -0.74 | – | 37 | – | 114 | 129 | 6600 | – | 1.4 | –
CC(C)(O)c1nc(-c2cccc3c2N(S(=O)(=O)c2ccc(OC(F)F)cc2)Cc2ccc(C(F)(F)F)nc2N3)no1 | – | 99 | 3.31 | – | 22 | – | – | 94 | 10000 | – | 18 | –
CC(C)(C)c1ccc(S(=O)(=O)N2Cc3ccc(C(F)(F)F)nc3Nc3cccc(-c4noc(=O)[nH]4)c32)cc1 | 104 | 76 | -0.52 | – | 42 | – | 77 | 105 | 1900 | – | 29 | –
Cn1cc(-c2cccc3c2N(S(=O)(=O)c2ccc(C(C)(C)C)cc2)Cc2ccc(C(F)(F)F)nc2N3)cn1 | 95 | 102 | 0.2 | – | 50 | – | 63 | 110 | 1100 | – | 0.76 | –
Cc1ccc2c(c1C)N(S(=O)(=O)c1ccc(C(C)(C)C)cc1)Cc1ccc(C(F)(F)F)nc1N2 | – | – | – | – | 42 | – | – | – | – | – | – | –
C[C@H](O)c1nc(-c2cccc3c2N(S(=O)(=O)c2ccc(C(C)(C)C)cc2)Cc2ccc(C(F)(F)F)nc2N3)no1 | 102 | 89 | 3.7 | 14 | 9 | 0.34 | 52 | 109 | > 10000 | 2.1 | 1.2 | 86
